Measured values taken from patent US20180214395A1 (priority 2017, published 2018).
Several values for one entry are separate records, joined by “and”; a condition that tells them apart may be missing. Identical values can stand only once. Counter-ions that a name gives are not always drawn.

Key:
[1] = Novelty-suppressed feeding test (NSFT); assay type: in vivo; conditions: rat, 72 hr after single dose
[2] = Female urine sniffing test (FUST); assay type: in vivo; conditions: rat; 24 hr after single dose; ketamine 10 mg/kg ip, d-methadone 20 mg/kg sc
Forced swim test = assay type: in vivo, rat
[3] = Locomotor activity assessment (distance traveled, rearing); assay type: in vivo, rat
[4] = mouse hot plate test; cited from earlier work
μ (MOP) (h) = μ (MOP) (h) (Homo sapiens, UniProt P35372)
[5] = target: T1, norepinephrine transporter (NET) (Rattus norvegicus, UniProt Q63380); assay: Norepinephrine uptake assay; assay type: biochemical; conditions: for norepinephrine uptake, % inhibition: 1.0E−05 M
T1 construct: tissue Eurofins Cerep; host or cells: rat hypothalamus synaptosomes (own knowledge of the vendor's assay)

[6] = target: T2, serotonin transporter (SERT or 5-HT) (Rattus norvegicus, UniProt P31652)
[7] = target: T2, serotonin transporter (SERT or 5-HT); assay: biochemical
[8] = target: NMDA (antagonist radioligand); assay: Binding assay NMDA (antagonist radioligand); conditions: Study 1; reference compound
opioid receptors = conditions: cited from earlier work
[9] = target: T3, PCP (antagonist radioligand) (Rattus norvegicus, UniProt P35439); assay: Binding assay PCP (antagonist radioligand); conditions: Study 2; Hill coefficient
T3 construct: PCP; rat cerebral; [^3H]TCP; tissue Eurofins Cerep; host or cells: rat cerebral cortex

[10] = 10 mg/kg, single administration 24 hours prior, 60 counts per subject
[11] = Vehicle minus treatment, 10 mg/kg
[12] = 10 mg/kg, 24 hours prior to testing
[13] = rat, 24 h after dosing, one-way ANOVA

T2 sequence (P31652 whole entry): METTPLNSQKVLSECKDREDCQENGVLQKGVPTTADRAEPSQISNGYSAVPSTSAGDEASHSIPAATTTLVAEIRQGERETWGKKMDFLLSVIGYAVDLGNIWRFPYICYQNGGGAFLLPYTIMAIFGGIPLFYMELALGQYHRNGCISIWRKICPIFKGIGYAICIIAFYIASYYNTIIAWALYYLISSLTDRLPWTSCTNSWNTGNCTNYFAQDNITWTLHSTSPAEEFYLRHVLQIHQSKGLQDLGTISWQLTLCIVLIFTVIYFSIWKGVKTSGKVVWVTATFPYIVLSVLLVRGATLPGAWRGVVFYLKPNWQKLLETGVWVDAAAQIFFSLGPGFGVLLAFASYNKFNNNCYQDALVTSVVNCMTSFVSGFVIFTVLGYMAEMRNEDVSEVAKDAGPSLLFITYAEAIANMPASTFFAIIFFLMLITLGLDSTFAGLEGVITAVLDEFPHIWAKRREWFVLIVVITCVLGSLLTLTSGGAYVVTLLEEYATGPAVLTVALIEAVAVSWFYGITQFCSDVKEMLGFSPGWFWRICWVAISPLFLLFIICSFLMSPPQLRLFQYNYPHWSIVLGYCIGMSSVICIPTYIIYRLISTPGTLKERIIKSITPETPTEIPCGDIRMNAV
Sequence of μ (MOP) (h) (P35372 whole entry): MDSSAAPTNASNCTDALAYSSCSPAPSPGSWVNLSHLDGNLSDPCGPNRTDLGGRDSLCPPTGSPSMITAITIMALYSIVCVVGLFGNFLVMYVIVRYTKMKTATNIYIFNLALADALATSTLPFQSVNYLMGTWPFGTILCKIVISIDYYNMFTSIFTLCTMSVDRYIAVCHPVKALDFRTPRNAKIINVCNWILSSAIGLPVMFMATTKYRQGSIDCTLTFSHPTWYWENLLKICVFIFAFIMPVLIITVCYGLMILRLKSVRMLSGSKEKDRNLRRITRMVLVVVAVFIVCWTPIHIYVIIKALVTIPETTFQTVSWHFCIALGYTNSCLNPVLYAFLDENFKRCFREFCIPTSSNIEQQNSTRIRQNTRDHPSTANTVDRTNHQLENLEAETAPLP
T1 sequence (Q63380 1-617): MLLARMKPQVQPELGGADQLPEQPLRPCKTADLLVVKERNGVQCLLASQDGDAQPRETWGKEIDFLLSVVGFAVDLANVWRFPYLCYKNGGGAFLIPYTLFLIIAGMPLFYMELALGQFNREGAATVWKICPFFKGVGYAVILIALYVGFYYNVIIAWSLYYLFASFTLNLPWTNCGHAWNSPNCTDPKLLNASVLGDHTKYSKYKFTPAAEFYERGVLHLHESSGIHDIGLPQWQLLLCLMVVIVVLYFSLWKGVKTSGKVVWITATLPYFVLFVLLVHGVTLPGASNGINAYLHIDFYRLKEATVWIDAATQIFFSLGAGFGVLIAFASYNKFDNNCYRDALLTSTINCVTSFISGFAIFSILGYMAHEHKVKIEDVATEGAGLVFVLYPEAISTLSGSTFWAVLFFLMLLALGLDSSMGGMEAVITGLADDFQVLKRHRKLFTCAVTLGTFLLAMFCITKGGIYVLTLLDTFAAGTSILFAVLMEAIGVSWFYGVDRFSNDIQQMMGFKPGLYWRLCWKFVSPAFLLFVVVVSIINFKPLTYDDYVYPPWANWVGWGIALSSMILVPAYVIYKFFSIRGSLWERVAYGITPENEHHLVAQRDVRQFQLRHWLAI

Structure (SMILES): CNC1(c2ccccc2Cl)CCCCC1=O (centres unmarked) [ketamine, reference compound]
- NSFT: latency to feed in the home cage [1]: neither ketamine or methadone influenced
- NSFT: latency to eat in a novel open field ([1]; ketamine 10 mg/kg ip, d-methadone 20 mg/kg sc): significantly decreases
- FUST: time sniffing water [2]: no effect
- FUST: time spent sniffing female urine vs vehicle [2]: increases
- Climbing, Mean frequency (Forced swim test; [10]): 7.600
- Immobility, Mean frequency (Forced swim test; [10]): 34.100
- Swimming, Mean frequency (Forced swim test; [10]): 18.300
- Climbing, Mean Diff. (Fisher's PLSD) (Forced swim test; [11]): −3.822
- Immobility, Mean Diff. (Fisher's PLSD) (Forced swim test; [11]): 14.900
- Swimming, Mean Diff. (Fisher's PLSD) (Forced swim test; [11]): −11.078
- Forced swim test: frequency of immobility vs vehicle (Forced swim test; rat, 24 h after single dose, d-methadone 10, 20 and 40 mg/kg SC, ketamine 10 mg/kg IP): significantly decreased
- Forced swim test: frequency of swimming vs vehicle (Forced swim test; rat, d-methadone 10, 20 and 40 mg/kg SC, ketamine 10 mg/kg IP): significantly increased
- Distance traveled min 1-5, Mean [3, 12]: 586.333
- Rearing min 1-5, Mean [3, 12]: 20.500
- Total Distance Traveled, Mean [3, 12]: 2464.333 cm/60 min
- Total Rearing, Mean ([3]; 10 mg/kg, 24 hours prior to testing, 60 minute test): 85.000
- Locomotor activity: total distance traveled (60 min) [3, 13]: no significant effect
- Locomotor activity: total rearing frequency (60 min) [3, 13]: no significant effect

Structure (SMILES): C[C@H](CN1CCOCC1)C(C(=O)N1CCCC1)(c1ccccc1)c1ccccc1 [d-moramide]
- Potency, times more potent than l-moramide [4]: 700 times

Structure (SMILES): C[C@@H](NC(=O)[C@@H](N)Cc1ccc(O)cc1)C(=O)NCC(=O)N(C)[C@@H](Cc1ccccc1)C(=O)NCCO [DAMGO]
- nH (μ (MOP) (h)): 0.9 and 0.8 and 0.7 and 1.0 and 0.6

Structure (SMILES): CC[C@@H](c1cccc(O)c1)[C@@H](C)CN(C)C [tapentadol hydrochloride, reference compound]
- IC50 [5]: 0.26 µM
- norepinephrine uptake, % inhibition [5]: 94.1%
- inhibition [6]: 89.1%
- IC50 [7]: 0.85 µM

Structure (SMILES): CCC(=O)C(CC(C)N(C)C)(c1ccccc1)c1ccccc1 (racemic) [methadone]
- NSFT: latency to feed in the home cage [1]: neither ketamine or methadone influenced

Structure (SMILES): CC[C@@H](c1cccc(O)c1)[C@@H](C)CN(C)C [TapentadolHydrochloride]
- inhibition [6]: 91.1% and 87.2% and 89.1%

Structure (SMILES): O=C(O)[C@@H]1C[C@H](CP(=O)(O)O)CCN1 [CGS 19755]
- IC50 [8]: 1.3 µM
- Ki [8]: 1.1 µM

Structure (SMILES): CCC(=O)C(c1ccccc1)(c1ccccc1)C(C)CN(C)C (stereo not drawn) [d-isomethadone]
- Potency, times less potent than l-isomethadone (opioid receptors): 50 times

Structure (SMILES): C[C@]12N[C@H](Cc3ccccc31)c1ccccc12 [MK 801]
- nH [9]: 0.9 and 1.1

Structure (SMILES): [2H]C([2H])([2H])CC(=O)C(C[C@H](C)N(C([2H])([2H])[2H])C([2H])([2H])[2H])(c1ccccc1)c1ccccc1
- IC50 [5]: 7.2 µM
- norepinephrine uptake, % inhibition [5]: 61.4%
- nH [9]: 0.8
- inhibition [6]: 90.5%
- IC50 [7]: 1.1 µM
